Measured values reported in the supplement of paper PMC10307832.

Experiments:
Assay in all cases: relative viability (nuclei count vs DMSO), 5 days (fraction); higher = more cells survive
SW 1573 = test system: SW 1573
Outline: (§1)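 Dosing by pin tool came one day after lung cancer cell lines were seeded in 1536-well plates, using either one drug or a fixed anchor-drug dose plus five library-drug doses (not always all listed) in √10 steps. After 5 days, nuclei were counted on 4× images. Relative viability is treated-well nuclei count divided by vehicle-well nuclei count, and values are medians of duplicate plates.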

RERF-LC-KJ = test system: RERF-LC-KJ
Outline: as §1

SK-MES-1 = test system: SK-MES-1
Outline: as §1

EMC-BAC-2 = test system: EMC-BAC-2
Outline: as §1

NCI-H2347 = test system: NCI-H2347
Outline: as §1

HOP-62 = test system: HOP-62
Outline: as §1

NCI-H3122 = test system: NCI-H3122
Outline: as §1

NCI-H2009 = test system: NCI-H2009
Outline: as §1

NCI-H838 = test system: NCI-H838
Outline: as §1

NCI-H2228 = test system: NCI-H2228
Outline: as §1

ABC-1 = test system: ABC-1
Outline: as §1

LK-2 = test system: LK-2
Outline: as §1

EKVX = test system: EKVX
Outline: as §1

201T = test system: 201T
Outline: as §1

LC-2-ad = test system: LC-2-ad
Outline: as §1

ChaGo-K-1 = test system: ChaGo-K-1
Outline: as §1

HCC-78 = test system: HCC-78
Outline: as §1

UMC-11 = test system: UMC-11
Outline: as §1

NCI-H1355 = test system: NCI-H1355
Outline: as §1

PC-14 = test system: PC-14
Outline: as §1

HCC-44 = test system: HCC-44
Outline: as §1

COCC1(CO)C(=O)C2CCN1CC2 (stereo not drawn) [PRIMA-1MET] + CS(=O)(=O)N1CCN(Cc2cc3nc(-c4cccc5[nH]ncc45)nc(N4CCOCC4)c3s2)CC1 [Pictilisib] (partner 1 µM)
relative viability (SW 1573; first compound 0.2 µM): 0.463
relative viability (SW 1573; first compound 0.6325 µM): 0.409
relative viability (SW 1573; first compound 2 µM): 0.45
relative viability (SW 1573; first compound 6.325 µM): 0.0446
relative viability (SW 1573; first compound 20 µM): 0.0283
relative viability (RERF-LC-KJ; first compound 0.2 µM): 0.538
relative viability (RERF-LC-KJ; first compound 0.6325 µM): 0.595
relative viability (RERF-LC-KJ; first compound 2 µM): 0.64
relative viability (RERF-LC-KJ; first compound 6.325 µM): 0.623
relative viability (RERF-LC-KJ; first compound 20 µM): 0.624
relative viability (SK-MES-1; first compound 0.2 µM): 0.449
relative viability (SK-MES-1; first compound 0.6325 µM): 0.384
relative viability (SK-MES-1; first compound 2 µM): 0.359
relative viability (SK-MES-1; first compound 6.325 µM): 0.381
relative viability (SK-MES-1; first compound 20 µM): 0.349
relative viability (EMC-BAC-2; first compound 0.2 µM): 0.608
relative viability (EMC-BAC-2; first compound 0.6325 µM): 0.503
relative viability (EMC-BAC-2; first compound 2 µM): 0.343
relative viability (EMC-BAC-2; first compound 6.325 µM): 0.566
relative viability (EMC-BAC-2; first compound 20 µM): 0.583
relative viability (NCI-H2347; first compound 0.2 µM): 0.416
relative viability (NCI-H2347; first compound 0.6325 µM): 0.741
relative viability (NCI-H2347; first compound 6.325 µM): 0.675
relative viability (NCI-H2347; first compound 20 µM): 0.561
relative viability (HOP-62; first compound 0.2 µM): 0.442
relative viability (HOP-62; first compound 0.6325 µM): 0.465
relative viability (HOP-62; first compound 2 µM): 0.368
relative viability (HOP-62; first compound 6.325 µM): 0.734
relative viability (HOP-62; first compound 20 µM): 0.392
relative viability (NCI-H3122; first compound 0.2 µM): 0.288
relative viability (NCI-H3122; first compound 0.6325 µM): 0.647
relative viability (NCI-H3122; first compound 2 µM): 0.659
relative viability (NCI-H3122; first compound 6.325 µM): 0.429
relative viability (NCI-H3122; first compound 20 µM): 0.52
relative viability (NCI-H2009; first compound 0.2 µM): 0.337
relative viability (NCI-H2009; first compound 0.6325 µM): 0.68
relative viability (NCI-H2009; first compound 2 µM): 0.506
relative viability (NCI-H2009; first compound 6.325 µM): 0.513
relative viability (NCI-H2009; first compound 20 µM): 0.0085
relative viability (NCI-H838; first compound 0.2 µM): 0.46
relative viability (NCI-H838; first compound 0.6325 µM): 0.448
relative viability (NCI-H838; first compound 2 µM): 0.355
relative viability (NCI-H838; first compound 6.325 µM): 0.589
relative viability (NCI-H838; first compound 20 µM): 0.632
relative viability (NCI-H2228; first compound 0.2 µM): 0.421
relative viability (NCI-H2228; first compound 0.6325 µM): 0.343
relative viability (NCI-H2228; first compound 2 µM): 0.358
relative viability (NCI-H2228; first compound 6.325 µM): 0.19
relative viability (NCI-H2228; first compound 20 µM): 0.0615
relative viability (ABC-1; first compound 0.2 µM): 0.71
relative viability (ABC-1; first compound 0.6325 µM): 0.5
relative viability (ABC-1; first compound 2 µM): 0.558
relative viability (ABC-1; first compound 6.325 µM): 0.669
relative viability (ABC-1; first compound 20 µM): 0.55
relative viability (LK-2; first compound 0.2 µM): 0.652
relative viability (LK-2; first compound 0.6325 µM): 0.57
relative viability (LK-2; first compound 2 µM): 0.359
relative viability (LK-2; first compound 6.325 µM): 0.364
relative viability (LK-2; first compound 20 µM): 0.16
relative viability (EKVX; first compound 0.2 µM): 0.475
relative viability (EKVX; first compound 0.6325 µM): 0.458
relative viability (EKVX; first compound 2 µM): 0.328
relative viability (EKVX; first compound 6.325 µM): 0.489
relative viability (EKVX; first compound 20 µM): 0.356
relative viability (201T; first compound 0.2 µM): 0.709
relative viability (201T; first compound 0.6325 µM): 0.593
relative viability (201T; first compound 2 µM): 0.525
relative viability (201T; first compound 6.325 µM): 0.741
relative viability (201T; first compound 20 µM): 0.694
relative viability (LC-2-ad; first compound 0.2 µM): 0.933
relative viability (LC-2-ad; first compound 0.6325 µM): 0.445
relative viability (LC-2-ad; first compound 2 µM): 0.321
relative viability (LC-2-ad; first compound 6.325 µM): 0.468
relative viability (LC-2-ad; first compound 20 µM): 0.421
relative viability (ChaGo-K-1; first compound 0.2 µM): 0.732
relative viability (ChaGo-K-1; first compound 0.6325 µM): 0.468
relative viability (ChaGo-K-1; first compound 2 µM): 0.84
relative viability (ChaGo-K-1; first compound 6.325 µM): 0.752
relative viability (ChaGo-K-1; first compound 20 µM): 0.328
relative viability (HCC-78; first compound 0.2 µM): 0.226
relative viability (HCC-78; first compound 0.6325 µM): 0.222
relative viability (HCC-78; first compound 6.325 µM): 0.138
relative viability (HCC-78; first compound 20 µM): 0.0597
relative viability (UMC-11; first compound 0.2 µM): 0.945
relative viability (UMC-11; first compound 0.6325 µM): 0.759
relative viability (UMC-11; first compound 2 µM): 0.594
relative viability (UMC-11; first compound 6.325 µM): 0.825
relative viability (UMC-11; first compound 20 µM): 0.786
relative viability (NCI-H1355; first compound 0.2 µM): 0.366
relative viability (NCI-H1355; first compound 0.6325 µM): 0.35
relative viability (NCI-H1355; first compound 2 µM): 0.308
relative viability (NCI-H1355; first compound 6.325 µM): 0.36
relative viability (NCI-H1355; first compound 20 µM): 0.541
relative viability (PC-14; first compound 0.2 µM): 0.813
relative viability (PC-14; first compound 0.6325 µM): 0.724
relative viability (PC-14; first compound 2 µM): 0.692
relative viability (PC-14; first compound 6.325 µM): 0.797
relative viability (PC-14; first compound 20 µM): 0.401
relative viability (HCC-44; first compound 0.2 µM): 0.569
relative viability (HCC-44; first compound 0.6325 µM): 0.414
relative viability (HCC-44; first compound 2 µM): 0.426
relative viability (HCC-44; first compound 6.325 µM): 0.651
relative viability (HCC-44; first compound 20 µM): 0.611
